According to PubChem BioAssay AID248 (DTP/NCI, 2004):
Several values for one entry are separate records, joined by “and”; a condition that tells them apart may be missing. Equal entries are not always repeated. Inconclusive results and toxic doses are left out.

System: L1210 leukemia ip in BDF1 mice, survival T/C
Experiment: NCI In Vivo Anticancer Drug Screen. Data for tumor model L1210 Leukemia (intraperitoneal) in B6D2F1 (BDF1) mice
Details: endpoint: mean survival time, higher = longer survival
How it was run: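 Survival endpoint. Drug-treated group vs vehicle group, expressed as T divided by C. Tumor passaged by transplantation.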

[1] = dose: 100.0 mg/kg/injection, schedule: Q04DX003 (ip), vehicle: Klucel (hydroxypropylcellulose) (HPC)
[2] = dose: 200.0 mg/kg/injection, schedule: Q04DX003 (ip), vehicle: Klucel (hydroxypropylcellulose) (HPC)
[3] = dose: 400.0 mg/kg/injection, schedule: Q04DX003 (ip), vehicle: Klucel (hydroxypropylcellulose) (HPC)
[4] = dose: 100.0 mg/kg/injection, schedule: Q04DX003 (ip), vehicle: other
[5] = dose: 100.0 mg/kg/injection, schedule: Q01DX001 (ip), vehicle: saline
[6] = dose: 200.0 mg/kg/injection, schedule: Q01DX001 (ip), vehicle: saline
[7] = dose: 400.0 mg/kg/injection, schedule: Q01DX001 (ip), vehicle: saline
[8] = dose: 5.0 mg/kg/injection, schedule: Q01DX001 (ip), vehicle: saline
[9] = dose: 10.0 mg/kg/injection, schedule: Q01DX001 (ip), vehicle: saline
[10] = dose: 20.0 mg/kg/injection, schedule: Q01DX001 (ip), vehicle: saline
[11] = dose: 40.0 mg/kg/injection, schedule: Q01DX001 (ip), vehicle: saline
[12] = dose: 100.0 mg/kg/injection, schedule: Q04DX003 (ip), vehicle: saline
[13] = dose: 200.0 mg/kg/injection, schedule: Q04DX003 (ip), vehicle: saline

Question: For `COc1cc(C#N)ccc1O`, which T/C (dose: 100.0 mg/kg/injection, schedule: Q01DX009 (ip), vehicle: gum acacia) is on record?
Answer: Its T/C is 106 % of control.

Question: What about the T/C (dose: 100.0 mg/kg/injection, schedule: Q04DX003 (ip), vehicle: gum acacia) of the same compound?
Answer: Its T/C is 103 % of control.

Question: And the T/C (dose: 200.0 mg/kg/injection, schedule: Q01DX009 (ip), vehicle: gum acacia)?
Answer: The T/C was 106 % of control.

Question: What about the T/C (dose: 200.0 mg/kg/injection, schedule: Q04DX003 (ip), vehicle: gum acacia) of the same compound?
Answer: The T/C was 100 % of control.

Question: What about the T/C (dose: 400.0 mg/kg/injection, schedule: Q01DX009 (ip), vehicle: gum acacia) of the same compound?
Answer: The T/C was 90 % of control.

Question: What about the T/C (dose: 400.0 mg/kg/injection, schedule: Q04DX003 (ip), vehicle: gum acacia) of the same compound?
Answer: The T/C was 94 % of control.

Question: Which T/C (dose: 100.0 mg/kg/injection, schedule: Q01DX009 (ip), vehicle: Klucel (hydroxypropylcellulose) (HPC)) does the source give for `CC1=CC(OC2CCCCO2)C2CC1C2(C)C` (stereo unspecified) here?
Answer: The T/C was 97 % of control.

Question: What about the T/C [1] of the same compound?
Answer: The T/C was 98 % of control.

Question: What about the T/C (dose: 200.0 mg/kg/injection, schedule: Q01DX009 (ip), vehicle: Klucel (hydroxypropylcellulose) (HPC)) of the same compound?
Answer: Its T/C is 103 % of control.

Question: What about the T/C [2] of the same compound?
Answer: Its T/C is 95 % of control.

Question: And the T/C (dose: 400.0 mg/kg/injection, schedule: Q01DX009 (ip), vehicle: Klucel (hydroxypropylcellulose) (HPC))?
Answer: Its T/C is 92 % of control.

Question: And the T/C [3]?
Answer: Its T/C is 93 % of control.

Question: What does the source list for `O=C(O)/C(Cc1cn[nH]n1)=N\O`?
Answer: T/C (dose: 100.0 mg/kg/injection, schedule: Q01DX001 (ip), vehicle: other): 95 % of control; T/C (dose: 200.0 mg/kg/injection, schedule: Q01DX001 (ip), vehicle: other): 101 % of control; T/C (dose: 400.0 mg/kg/injection, schedule: Q01DX001 (ip), vehicle: other): 101 % of control

Question: Which T/C [4] does the source give for `Cc1ccc(C)n1Cc1ccccc1` here?
Answer: Its T/C is 98 % of control.

Question: What about the T/C (dose: 200.0 mg/kg/injection, schedule: Q04DX003 (ip), vehicle: other) of the same compound?
Answer: Its T/C is 98 % of control.

Question: What about the T/C (dose: 400.0 mg/kg/injection, schedule: Q04DX003 (ip), vehicle: other) of the same compound?
Answer: The T/C was 101 % of control.

Question: `CC1(C)CCC2CCCCC2O1` (stereo unspecified) was tested. Which T/C [5] did it give?
Answer: The T/C was 102 % of control.

Question: What about the T/C [6] of the same compound?
Answer: Its T/C is 98 % of control.

Question: What about the T/C [7] of the same compound?
Answer: The T/C was 96 % of control.

Question: `CC(=O)NC1C(OCc2ccccc2)OC2COC(C)(C)OC2C1O` (stereo unspecified) was tested. Which T/C (dose: 100.0 mg/kg/injection, schedule: Q01DX001 (ip), vehicle: saline with Tween-80) did it give?
Answer: Its T/C is 107 % of control.

Question: And the T/C (dose: 200.0 mg/kg/injection, schedule: Q01DX001 (ip), vehicle: saline with Tween-80)?
Answer: Its T/C is 93 % of control.

Question: And the T/C (dose: 400.0 mg/kg/injection, schedule: Q01DX001 (ip), vehicle: saline with Tween-80)?
Answer: Its T/C is 110 % of control.

Question: What does the source list for `O=C1CCCC1CN1CCOCC1` (stereo unspecified)?
Answer: T/C (dose: 100.0 mg/kg/injection, schedule: Q01DX009 (ip), vehicle: saline): 92 % of control; T/C (dose: 200.0 mg/kg/injection, schedule: Q01DX009 (ip), vehicle: saline): 96 % of control; T/C (dose: 400.0 mg/kg/injection, schedule: Q01DX009 (ip), vehicle: saline): 94 % of control

Question: What does the source list for `Cc1nnc(C(N)=O)c(=O)[nH]1`?
Answer: T/C (dose: 100.0 mg/kg/injection, schedule: Q01DX001 (ip), vehicle: Klucel (hydroxypropylcellulose) (HPC)): 109 % of control; T/C (dose: 200.0 mg/kg/injection, schedule: Q01DX001 (ip), vehicle: Klucel (hydroxypropylcellulose) (HPC)): 120 % of control; T/C (dose: 400.0 mg/kg/injection, schedule: Q01DX001 (ip), vehicle: Klucel (hydroxypropylcellulose) (HPC)): 97 % of control

Question: Which results are given for `O=C1C=Cc2ccc3c4c(ccc1c24)C=CC3=O`?
Answer: T/C (dose: 100.0 mg/kg/injection, schedule: Q04DX003 (ip), vehicle: acetone): 98 % of control; T/C (dose: 200.0 mg/kg/injection, schedule: Q04DX003 (ip), vehicle: acetone): 91 % of control

Question: Which results are given for `CCC1COP(=O)(c2ccccc2)OC1` (stereo unspecified)?
Answer: T/C [5]: 103 % of control; T/C [6]: 103 % of control; T/C [7]: 100 % of control

Question: How did the T/C [8] turn out when `CCOP(=O)(OCC)O/N=C(/SC)C(C)C` was run?
Answer: The T/C was 100 % of control.

Question: What about the T/C [9] of the same compound?
Answer: The T/C was 111 % of control.

Question: And the T/C [10]?
Answer: Its T/C is 103 % of control.

Question: What about the T/C [11] of the same compound?
Answer: Its T/C is 100 % of control.

Question: And the T/C (dose: 80.0 mg/kg/injection, schedule: Q01DX001 (ip), vehicle: saline)?
Answer: The T/C was 116 % of control.

Question: How did the T/C [5] turn out when `COC1C=CC23c4cc5c(cc4C(O)OC2CN(C)C3C1)OCO5` (stereo unspecified) was run?
Answer: Its T/C is 106 % of control.

Question: Which results are given for `CN(C)CCCNc1c2ccccc2nc2ccccc12`?
Answer: T/C [8]: 109 % of control; T/C [9]: 104 % of control; T/C [10]: 98 % of control; T/C [11]: 91 % of control

Question: Which T/C (dose: 75.0 mg/kg/injection, schedule: Q01DX009 (ip), vehicle: saline) does the source give for `O=c1[nH]c2ccc(F)cc2c(=O)o1` here?
Answer: Its T/C is 107 % of control.

Question: And the T/C (dose: 150.0 mg/kg/injection, schedule: Q01DX009 (ip), vehicle: saline)?
Answer: The T/C was 93 % of control.

Question: What about the T/C (dose: 300.0 mg/kg/injection, schedule: Q01DX009 (ip), vehicle: saline) of the same compound?
Answer: The T/C was 94 % of control.

Question: Which T/C [5] does the source give for `Oc1ccc(Br)cc1/C=N/c1nc(-c2ccccc2)cs1.Oc1ccc(Br)cc1/C=N/c1nc(-c2ccccc2)cs1.[Zn]` here?
Answer: The T/C was 86 % of control.

Question: What does the source list for `O=C(O)CCCCCNCc1cc(=O)[nH]c(=O)[nH]1`?
Answer: T/C [12]: 97 % of control; T/C [13]: 101 % of control

Question: What does the source list for `Cc1cc([NH-])c([NH-])cc1C.[Cl][Pt+2][Cl]`?
Answer: T/C (dose: 18.0 mg/kg/injection, schedule: Q01DX009 (ip), vehicle: water): 150 % of control; T/C (dose: 25.0 mg/kg/injection, schedule: Q01DX009 (ip), vehicle: other): 119 % of control; T/C (dose: 50.0 mg/kg/injection, schedule: Q04DX003 (ip), vehicle: other): 104 % of control; T/C (dose: 50.0 mg/kg/injection, schedule: Q04DX003 (ip), vehicle: saline): 112 % of control and 119 % of control; T/C [4]: 119 % of control; T/C [12]: 107 % of control and 113 % of control; T/C [13]: 93 % of control

Question: For `NC(N)=N/N=C/c1ccc(O)c(C(=O)O)c1`, which T/C (dose: 15.0 mg/kg/injection, schedule: Q01DX Z (ip), vehicle: methylcellulose (MC)) is on record?
Answer: The T/C was 92 % of control.

Question: What about the T/C (dose: 30.0 mg/kg/injection, schedule: Q01DX Z (ip), vehicle: methylcellulose (MC)) of the same compound?
Answer: Its T/C is 94 % of control.

Question: And the T/C (dose: 60.0 mg/kg/injection, schedule: Q01DX Z (ip), vehicle: methylcellulose (MC))?
Answer: Its T/C is 106 % of control.

Question: What about the T/C (dose: 60.0 mg/kg/injection, schedule: Q01DX Z (oral), vehicle: methylcellulose (MC)) of the same compound?
Answer: The T/C was 108 % of control.

Question: And the T/C (dose: 120.0 mg/kg/injection, schedule: Q01DX Z (ip), vehicle: methylcellulose (MC))?
Answer: Its T/C is 88 % of control.

Question: What about the T/C (dose: 120.0 mg/kg/injection, schedule: Q01DX Z (oral), vehicle: methylcellulose (MC)) of the same compound?
Answer: The T/C was 113 % of control.

Question: And the T/C (dose: 250.0 mg/kg/injection, schedule: Q01DX Z (oral), vehicle: methylcellulose (MC))?
Answer: Its T/C is 89 % of control.

Question: With `CCCCNC(=O)C1CC2c3c(Br)ccc4c3C(CC2N(C)C1)CN4C(C)=O` (stereo unspecified) as the compound, how does the T/C (dose: 20.0 mg/kg/injection, schedule: Q01DX001 (ip), vehicle: Klucel (hydroxypropylcellulose) (HPC)) read?
Answer: Its T/C is 98 % of control.

Question: Which results are given for `S=P(NCCSCc1ccccc1)(N1CC1)N1CC1`?
Answer: T/C (dose: 6.5 mg/kg/injection, schedule: Q01DX011 (ip), vehicle: carboxymethylcellulose (CMC)): 98 % of control; T/C (dose: 13.0 mg/kg/injection, schedule: Q01DX011 (ip), vehicle: carboxymethylcellulose (CMC)): 102 % of control; T/C (dose: 26.0 mg/kg/injection, schedule: Q01DX011 (ip), vehicle: carboxymethylcellulose (CMC)): 110 % of control; T/C (dose: 200.0 mg/kg/injection, schedule: Q01DX015 (ip), vehicle: carboxymethylcellulose (CMC)): 106 % of control

Question: With `CCCCOC(=O)Nc1cccc(O)c1` as the compound, how does the T/C (dose: 100.0 mg/kg/injection, schedule: Q01DX009 (ip), vehicle: saline with Tween-80) read?
Answer: Its T/C is 92 % of control.

Question: And the T/C (dose: 200.0 mg/kg/injection, schedule: Q01DX009 (ip), vehicle: saline with Tween-80)?
Answer: Its T/C is 87 % of control.

Question: Which results are given for `CC(C)(C)C(=O)OCn1cnc(C#N)c1[N+](=O)[O-]`?
Answer: T/C (dose: 100.0 mg/kg/injection, schedule: Q01DX001 (ip), vehicle: acetone): 92 % of control; T/C (dose: 200.0 mg/kg/injection, schedule: Q01DX001 (ip), vehicle: acetone): 101 % of control; T/C (dose: 400.0 mg/kg/injection, schedule: Q01DX001 (ip), vehicle: acetone): 92 % of control

Question: What does the source list for `[N-]=[N+]=Nc1ccc(-c2nc(N)[nH]c(=O)c2Br)cc1`?
Answer: T/C [1]: 93 % of control; T/C [2]: 86 % of control; T/C [3]: 100 % of control

Question: What does the source list for `COC1CCC(C2=NC3CCCCC3SC2)CC1` (stereo unspecified)?
Answer: T/C (dose: 100.0 mg/kg/injection, schedule: Q04DX002 (sc), vehicle: olive oil, sesame oil, peanut oil): 97 % of control; T/C (dose: 200.0 mg/kg/injection, schedule: Q04DX002 (sc), vehicle: olive oil, sesame oil, peanut oil): 107 % of control; T/C (dose: 400.0 mg/kg/injection, schedule: Q04DX002 (sc), vehicle: olive oil, sesame oil, peanut oil): 100 % of control
